Laboratory results reported in patent EP1551873B1, “AGONISTS AND ANTAGONISTS OF THE HUMAN ODORANT RECEPTOR OR17-4 AND USES THEREOF” (Symrise AG, priority 2002, dated 2004).

How the values were obtained:
[1] = target: T1, hOR17-4 Rezeptor der vollen Länge (Homo sapiens, UniProt P34982); assay: Ca2+ imaging of HEK293 cells expressing full-length receptor (pOR17-4v); type: cell-based
T1 construct: wurde der Rezeptor hOR17-4 in seiner vollen Länge wie in Beispiel 3 beschrieben kloniert; expressed in transfected cells; host or cells: HEK293, transient, plasmid pOR17-4v (pRC/CMV)
T1 sequence (P34982 1-312): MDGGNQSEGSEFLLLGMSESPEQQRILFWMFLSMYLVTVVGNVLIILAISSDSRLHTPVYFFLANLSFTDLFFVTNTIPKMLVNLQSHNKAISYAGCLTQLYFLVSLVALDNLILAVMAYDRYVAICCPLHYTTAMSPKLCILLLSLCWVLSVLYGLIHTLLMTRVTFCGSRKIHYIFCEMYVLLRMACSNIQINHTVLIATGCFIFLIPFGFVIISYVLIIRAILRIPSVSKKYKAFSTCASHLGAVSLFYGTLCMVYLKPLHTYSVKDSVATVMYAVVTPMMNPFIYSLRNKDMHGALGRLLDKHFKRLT
From the text: Um einen Expressionsvektor für das gesamte hOR17-4-Gen ohne geänderte Aminosäuresequenz zu erhalten, wurde das 982 bp lange PCR-Produkt (SEQ ID NO. 3, Herstellung vergleiche Beispiel 2) über stumpfe Enden in den Hindlll/Xbal verdauten Vektor pRC/CMV (Invitrogen, Carlsbad, CA), dessen überhängende Enden mit Klenow-Enzym aufgefüllt worden waren, einkloniert.
HEK293-Zellen wurden in MEM (Life Technologies, Gaithersburg, MD), das mit 10 % hitze-inaktiviertem fetalem Kälber-Serum angereichert war, in einem Inkubator bei 37 °C in einer Atmosphäre aus 95 % befeuchteter Luft und 5 % CO2 kultiviert. Semikonfluente Zellen wurden in 35 mm Gefäßen (Falcon) mittels Calciumphosphat-Präzipitation (Zufall et al., PNAS 90 (1993), 9335-9339) unter Verwendung jeweils des Plasmids pOR17-4 bzw. pOR17-4v transfiziert. […]
Die Ca^2+-imaging-Experimente wurden auf dem Träger eines invertierten Zeiss-Mikroskopes durchgeführt, das für die ratiofluorometrische Bildgebung mit einer Xenon-Bogenlampe, einem Vielfach-Wellenlängen-Illuminations-System POLYCH-ROM II zur Anregung, einer gekühlten charge-coupled device (CCD)-Kamera und einer WinNT-basierten T.I.L.L.-Vision-Software zum Sammeln und raum- und zeitabhängigen Quantifizieren Ca^2+-abhängiger Fluoreszenz-Signale (F340/F380-Verhältnis) ausgestattet war. […]

menschliche Nase = assay: Odour perception test on about 100 human subjects (agonist, antagonist, agonist again); type: in vivo
From the text: An ca. 100 Probanden wurde die Wirkung des Agonisten (Bourgeonal, "Duft A") und des Antagonisten (n-Undecanal, "Duft B") getestet. Dabei wurde zuerst an Duft A (1:100 verdünnt) gerochen, dann wurde in kurzem zeitlichen Abstand (1 - 3 s) an Duft B (ebenfalls 1:100 verdünnt) gerochen, anschließend wurde direkt wieder an Duft A gerochen. Die Probanden wurden nach ihrem Riecheindruck befragt: • Alle 100 Probanden konnten beim jeweils ersten Riechen spezifisch Duft A und B wahrnehmen und unterscheiden. Ca. 90 der 100 Testpersonen beschrieben, dass beim zweiten Riechen an Duft A kein Dufteindruck ausgelöst wurde. Nach ca. 1 Minute war Duft A bereits wieder riechbar.

humane Spermien = assay: Sperm orientation towards capillary tip (CAVMA, circular statistics, Rayleigh test); type: cell-based, human; details: Bourgeonal 10^-8 M and higher
From the text: Zur Bestimmung der Chemoattraktion von Spermien und des Effekts eines Antagonisten wurde Bourgeonal allein bei 10^-7 M und in Kombination mit 10^-6, 10^-7, 10^-8 oder 10^-9 M n-Undecanal getestet. Während der Durchführung der Chemotaxis-Bioassays wurde das Spermienverhalten innerhalb eines Bereiches von 300 µm vor jeder Kapillarspitze 30 Sekunden lang auf Video aufgenommen. Die Videoaufnahme begann 10 bis 15 Minuten nach dem Experimentbeginn, um die Bildung eines chemischen Gradienten zu ermöglichen. Die Spermien-Orientierung zum Gradienten hin wurde unter Verwendung von CAVMA quantifiziert. Durch Anwendung zirkulärer Statistiken wurde die mittlere Vektorlänge (r) und die Schwimmrichtung berechnet, um das Bewegungsmuster der untersuchten Spermien zu beschreiben. Der Winkel der Spermienorientierung wurde in Bezug auf einen Ursprung angegeben, der als die kürzeste Verbindung zwischen jeder individuellen Zelle und der Kapillarenspitze (0°) definiert wurde. Um zu bestimmen, ob die Zellbewegung innerhalb des chemischen Gradienten nicht-zufällig war, wurde jede mittlere Ausrichtung mit einer uniformen zirkulären Verteilung unter Verwendung eines unimodalen Rayleigh-Tests (J. H. Zar, Biostatistical Analysis (1984)) verglichen.

Row | Inhibition der Bourgeonal-Antwort ([1]; 30 to 60 s pre-incubation of the cells) | Aktivierung des vollständigen Rezeptors hOR17-4 [1] | SMILES | Testpersonen ohne Dufteindruck beim zweiten Riechen an Duft A (menschliche Nase; Duft B 1:100 sniffed 1 - 3 s after Duft A 1:100, then Duft A again) | Zeit, nach der Duft A wieder riechbar war (menschliche Nase; after sniffing Duft B) | Zellbewegungsmuster in der Nähe der Kapillarspitzen (humane Spermien) | mittlere Vektorlänge (r), Rayleigh-Test (humane Spermien; all comparisons)
1 | inhibiert | – | CCCCCCCCCCC=O [n-Undecanal] | Ca. 90 der 100 Testpersonen | ca. 1 Minute | – | –
2 | – | aktivierte deutlich | CC(C)(C)c1ccc(CCC=O)cc1 [Bourgeonal] | – | – | signifikant nicht-zufällig | ≥ 0,45
